# Calls of active or inactive are those of the source.
# Assays:
# [1] = molecular target: Megakaryocyte-associated tyrosine-protein kinase (Homo sapiens, UniProt P42679); format: functional;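 note: affinity measured as one member of a kinase panel (Navigating the Kinome) against MATK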
# [2] = molecular target: cGMP-dependent protein kinase 1 (Homo sapiens, UniProt Q13976); format: functional;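 note: value from a kinome panel screen with PRKG1 as the panel member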
# [3] = molecular target: RAC-gamma serine/threonine-protein kinase (Homo sapiens, UniProt Q9Y243); format: functional
# [4] = molecular target: Protein kinase C delta type (Homo sapiens, UniProt Q05655); format: functional
# [5] = molecular target: Serine/threonine-protein kinase PLK4 (Homo sapiens, UniProt O00444); format: functional;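 note: PLK4 measured as one member of a kinome-wide kinase profiling panel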
# [6] = molecular target: Tyrosine-protein kinase SYK (Homo sapiens, UniProt P43405); format: functional
# [7] = molecular target: Testis-specific serine/threonine-protein kinase 2 (Homo sapiens, UniProt Q96PF2); format: functional;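 note: part of the Navigating the Kinome panel, target entry STK22B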
# SRSF protein kinase 1 = SRSF protein kinase 1 (Homo sapiens, UniProt Q96SB4); format: functional;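 note: measured as one member of a kinome-wide kinase profiling panel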
# [8] = molecular target: MAP kinase-activated protein kinase 2 (Homo sapiens, UniProt P49137); format: functional;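 note: measured as one member of a kinome-wide kinase panel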
# [9] = molecular target: Casein kinase I isoform gamma-1 (Homo sapiens, UniProt Q9HCP0); format: functional;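 note: measured as the CSNK1G1 member of a kinome profiling panel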
# [10] = molecular target: Ribosomal protein S6 kinase alpha-5 (Homo sapiens, UniProt O75582); format: functional
# [11] = molecular target: Tyrosine-protein kinase Lyn (Homo sapiens, UniProt P07948); format: functional;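 note: lyn as one member of a kinase panel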
# [12] = molecular target: Serine/threonine-protein kinase pim-3 (Homo sapiens, UniProt Q86V86); format: functional;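 note: value obtained as one member of a broad kinase panel profiling effort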
# [13] = molecular target: Platelet-derived growth factor receptor beta (Homo sapiens, UniProt P09619); format: functional;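 note: value comes from a kinome panel, with PDGFRB tested as one panel member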
# [14] = molecular target: Serine/threonine-protein kinase Nek4 (Homo sapiens, UniProt P51957); format: functional
# [15] = molecular target: Interleukin-1 receptor-associated kinase 4 (Homo sapiens, UniProt Q9NWZ3); format: functional
# [16] = molecular target: Vascular endothelial growth factor receptor 3 (Homo sapiens, UniProt P35916); format: functional;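 note: value from a kinome-wide profiling panel, with FLT4 as the panel member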
# [17] = molecular target: Homeodomain-interacting protein kinase 4 (Homo sapiens, UniProt Q8NE63); format: functional
# [18] = molecular target: Serine/threonine-protein kinase pim-2 (Homo sapiens, UniProt Q9P1W9); format: functional;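 note: value comes from a broad kinase panel profiling study in which PIM2 was one of the panel members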
# [19] = molecular target: Serine/threonine-protein kinase DCLK1 (Homo sapiens, UniProt O15075); format: functional;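 note: affinity for DCLK1 (listed as DCAMKL1) measured as one member of a kinome-wide kinase profiling panel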
# [20] = molecular target: Tyrosine-protein kinase FRK (Homo sapiens, UniProt P42685); format: functional;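 note: FRK tested as one member of a kinome panel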
# Aminopeptidase N = molecular target: T1, Aminopeptidase N (Plasmodium falciparum FcB1/Columbia, UniProt O96935); experiment: P. falciparum M1AAP inhibitors, biochemical, fluorogenic H-Leu-NHMec substrate, 1536-well (AID 1445); parameters: species or system Plasmodium falciparum 3D7, 3D7
# T1 sequence (O96935 whole entry): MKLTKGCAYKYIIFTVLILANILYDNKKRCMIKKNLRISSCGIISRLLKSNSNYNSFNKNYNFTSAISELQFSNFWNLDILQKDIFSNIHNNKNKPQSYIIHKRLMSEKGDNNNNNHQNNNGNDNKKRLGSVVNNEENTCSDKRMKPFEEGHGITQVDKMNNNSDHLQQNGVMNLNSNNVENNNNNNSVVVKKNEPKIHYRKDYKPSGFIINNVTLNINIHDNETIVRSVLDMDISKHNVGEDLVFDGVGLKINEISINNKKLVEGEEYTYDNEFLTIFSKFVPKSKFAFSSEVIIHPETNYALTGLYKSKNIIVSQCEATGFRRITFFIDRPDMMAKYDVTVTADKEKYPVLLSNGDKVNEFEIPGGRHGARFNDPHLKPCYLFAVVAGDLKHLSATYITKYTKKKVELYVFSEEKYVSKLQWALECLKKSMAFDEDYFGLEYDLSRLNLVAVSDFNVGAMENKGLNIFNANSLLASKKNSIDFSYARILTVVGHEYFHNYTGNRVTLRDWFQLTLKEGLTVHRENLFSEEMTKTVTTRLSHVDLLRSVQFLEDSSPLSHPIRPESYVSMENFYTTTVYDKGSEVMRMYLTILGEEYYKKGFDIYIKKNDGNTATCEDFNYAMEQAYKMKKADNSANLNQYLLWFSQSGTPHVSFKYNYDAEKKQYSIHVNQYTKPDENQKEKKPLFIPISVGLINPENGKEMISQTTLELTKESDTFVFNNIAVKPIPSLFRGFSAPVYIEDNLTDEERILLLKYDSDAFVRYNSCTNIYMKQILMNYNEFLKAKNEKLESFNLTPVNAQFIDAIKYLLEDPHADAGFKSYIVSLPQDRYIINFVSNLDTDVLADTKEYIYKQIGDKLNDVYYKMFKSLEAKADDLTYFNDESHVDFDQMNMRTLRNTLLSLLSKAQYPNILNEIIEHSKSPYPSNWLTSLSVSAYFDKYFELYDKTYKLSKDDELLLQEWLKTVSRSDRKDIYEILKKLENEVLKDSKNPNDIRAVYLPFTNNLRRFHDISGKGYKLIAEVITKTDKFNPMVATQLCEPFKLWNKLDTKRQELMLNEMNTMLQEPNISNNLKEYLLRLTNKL
# Streptokinase A = molecular target: T2, Streptokinase A (Streptococcus pyogenes serotype M1, UniProt P10520); experiment: S. pyogenes streptokinase expression inhibitors, potency, dose response, plasminogen activation absorbance, OD405 (AID 1914); format: functional, Streptococcus pyogenes M1 GAS;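 note: secreted streptokinase activity via plasminogen activation per viability signal from cell pellet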
# T2 sequence (P10520 whole entry): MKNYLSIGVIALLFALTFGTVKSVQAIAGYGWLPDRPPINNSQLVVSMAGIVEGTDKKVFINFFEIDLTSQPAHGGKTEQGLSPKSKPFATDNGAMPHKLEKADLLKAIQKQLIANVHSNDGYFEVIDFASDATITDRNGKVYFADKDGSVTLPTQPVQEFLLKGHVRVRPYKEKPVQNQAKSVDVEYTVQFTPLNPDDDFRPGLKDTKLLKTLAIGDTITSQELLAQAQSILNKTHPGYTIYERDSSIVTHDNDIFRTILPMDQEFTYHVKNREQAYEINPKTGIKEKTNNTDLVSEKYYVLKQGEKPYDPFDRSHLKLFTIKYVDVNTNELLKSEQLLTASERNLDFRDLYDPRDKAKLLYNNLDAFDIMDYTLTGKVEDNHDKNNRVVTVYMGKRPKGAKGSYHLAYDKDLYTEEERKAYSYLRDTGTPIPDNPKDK
# Streptococcus = experiment: Group A Streptococcus viability loss, dose response, counter-screen for streptokinase expression inhibitor project, luminescence, BacTiterGlo (AID 1915); format: functional, organism-based;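 note: potency for reduction of bacterial viability or growth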
# [21] = molecular target: Tyrosine-protein kinase ABL1 (Homo sapiens, UniProt P00519); format: functional
# RAC-gamma serine/threonine-protein kinase, sequence (Q9Y243 whole entry): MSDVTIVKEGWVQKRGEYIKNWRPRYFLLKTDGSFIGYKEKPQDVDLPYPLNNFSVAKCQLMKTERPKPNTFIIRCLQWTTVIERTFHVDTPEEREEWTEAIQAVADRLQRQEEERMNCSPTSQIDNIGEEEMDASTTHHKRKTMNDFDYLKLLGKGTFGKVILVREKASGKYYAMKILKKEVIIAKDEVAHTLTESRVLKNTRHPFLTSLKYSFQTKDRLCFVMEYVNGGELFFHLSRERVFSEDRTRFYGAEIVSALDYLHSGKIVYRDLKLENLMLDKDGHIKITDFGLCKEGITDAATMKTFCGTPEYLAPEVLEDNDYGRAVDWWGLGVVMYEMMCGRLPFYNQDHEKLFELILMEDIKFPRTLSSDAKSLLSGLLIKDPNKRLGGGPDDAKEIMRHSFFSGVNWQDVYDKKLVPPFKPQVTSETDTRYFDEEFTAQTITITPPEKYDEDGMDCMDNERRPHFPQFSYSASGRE
# Interleukin-1 receptor-associated kinase 4, sequence (Q9NWZ3 whole entry): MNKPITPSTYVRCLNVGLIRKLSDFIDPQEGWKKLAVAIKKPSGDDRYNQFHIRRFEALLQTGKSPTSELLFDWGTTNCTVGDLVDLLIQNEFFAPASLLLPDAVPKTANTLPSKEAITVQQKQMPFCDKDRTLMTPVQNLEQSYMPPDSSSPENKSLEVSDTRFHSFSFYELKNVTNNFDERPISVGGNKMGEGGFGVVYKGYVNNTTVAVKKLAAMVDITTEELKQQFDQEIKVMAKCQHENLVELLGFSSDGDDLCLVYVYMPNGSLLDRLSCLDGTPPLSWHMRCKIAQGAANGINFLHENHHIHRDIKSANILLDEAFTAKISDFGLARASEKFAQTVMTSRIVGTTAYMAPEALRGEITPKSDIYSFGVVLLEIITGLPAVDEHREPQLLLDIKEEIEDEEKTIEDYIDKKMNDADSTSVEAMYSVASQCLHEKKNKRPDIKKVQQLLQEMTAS
# Protein kinase C delta type, sequence (Q05655 whole entry): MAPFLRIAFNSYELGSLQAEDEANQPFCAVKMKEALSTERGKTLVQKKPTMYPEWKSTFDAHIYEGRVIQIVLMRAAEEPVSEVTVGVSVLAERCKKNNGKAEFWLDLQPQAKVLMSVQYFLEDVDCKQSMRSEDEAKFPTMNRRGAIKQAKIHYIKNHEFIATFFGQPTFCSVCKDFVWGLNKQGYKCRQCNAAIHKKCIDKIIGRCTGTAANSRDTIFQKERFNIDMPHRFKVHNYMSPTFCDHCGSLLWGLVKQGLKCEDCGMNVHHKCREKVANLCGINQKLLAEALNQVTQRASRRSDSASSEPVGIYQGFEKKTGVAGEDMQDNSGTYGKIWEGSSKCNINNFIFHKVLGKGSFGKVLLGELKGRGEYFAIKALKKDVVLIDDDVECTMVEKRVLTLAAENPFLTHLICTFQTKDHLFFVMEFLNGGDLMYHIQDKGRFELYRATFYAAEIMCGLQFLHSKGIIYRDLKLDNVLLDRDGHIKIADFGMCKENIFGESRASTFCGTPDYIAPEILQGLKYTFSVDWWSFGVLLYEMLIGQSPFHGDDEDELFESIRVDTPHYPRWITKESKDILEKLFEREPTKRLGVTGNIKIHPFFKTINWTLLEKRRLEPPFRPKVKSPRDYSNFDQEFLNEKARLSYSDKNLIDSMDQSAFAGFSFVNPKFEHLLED
# MAP kinase-activated protein kinase 2, sequence (P49137 whole entry, canonical isoform): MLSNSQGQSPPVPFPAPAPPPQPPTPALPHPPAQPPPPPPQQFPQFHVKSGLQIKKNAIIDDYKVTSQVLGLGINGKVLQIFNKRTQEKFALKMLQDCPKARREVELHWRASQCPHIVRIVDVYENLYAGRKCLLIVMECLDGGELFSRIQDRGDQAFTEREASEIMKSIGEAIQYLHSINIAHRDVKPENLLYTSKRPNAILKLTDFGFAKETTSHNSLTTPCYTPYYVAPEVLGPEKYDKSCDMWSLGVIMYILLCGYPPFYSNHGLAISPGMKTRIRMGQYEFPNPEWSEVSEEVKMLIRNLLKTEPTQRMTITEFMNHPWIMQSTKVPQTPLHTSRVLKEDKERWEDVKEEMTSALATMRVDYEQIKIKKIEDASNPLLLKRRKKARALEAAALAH
# Testis-specific serine/threonine-protein kinase 2, sequence (Q96PF2 whole entry): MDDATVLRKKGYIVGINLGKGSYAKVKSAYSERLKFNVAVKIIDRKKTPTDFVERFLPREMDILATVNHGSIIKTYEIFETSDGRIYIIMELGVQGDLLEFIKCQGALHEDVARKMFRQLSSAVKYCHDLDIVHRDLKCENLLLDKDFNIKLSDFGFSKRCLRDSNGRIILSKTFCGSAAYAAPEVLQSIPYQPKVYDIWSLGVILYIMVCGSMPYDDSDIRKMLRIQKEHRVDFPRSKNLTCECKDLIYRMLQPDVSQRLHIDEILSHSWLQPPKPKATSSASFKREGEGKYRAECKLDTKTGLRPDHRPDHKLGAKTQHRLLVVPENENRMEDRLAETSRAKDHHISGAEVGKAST
# Platelet-derived growth factor receptor beta, sequence (P09619 whole entry): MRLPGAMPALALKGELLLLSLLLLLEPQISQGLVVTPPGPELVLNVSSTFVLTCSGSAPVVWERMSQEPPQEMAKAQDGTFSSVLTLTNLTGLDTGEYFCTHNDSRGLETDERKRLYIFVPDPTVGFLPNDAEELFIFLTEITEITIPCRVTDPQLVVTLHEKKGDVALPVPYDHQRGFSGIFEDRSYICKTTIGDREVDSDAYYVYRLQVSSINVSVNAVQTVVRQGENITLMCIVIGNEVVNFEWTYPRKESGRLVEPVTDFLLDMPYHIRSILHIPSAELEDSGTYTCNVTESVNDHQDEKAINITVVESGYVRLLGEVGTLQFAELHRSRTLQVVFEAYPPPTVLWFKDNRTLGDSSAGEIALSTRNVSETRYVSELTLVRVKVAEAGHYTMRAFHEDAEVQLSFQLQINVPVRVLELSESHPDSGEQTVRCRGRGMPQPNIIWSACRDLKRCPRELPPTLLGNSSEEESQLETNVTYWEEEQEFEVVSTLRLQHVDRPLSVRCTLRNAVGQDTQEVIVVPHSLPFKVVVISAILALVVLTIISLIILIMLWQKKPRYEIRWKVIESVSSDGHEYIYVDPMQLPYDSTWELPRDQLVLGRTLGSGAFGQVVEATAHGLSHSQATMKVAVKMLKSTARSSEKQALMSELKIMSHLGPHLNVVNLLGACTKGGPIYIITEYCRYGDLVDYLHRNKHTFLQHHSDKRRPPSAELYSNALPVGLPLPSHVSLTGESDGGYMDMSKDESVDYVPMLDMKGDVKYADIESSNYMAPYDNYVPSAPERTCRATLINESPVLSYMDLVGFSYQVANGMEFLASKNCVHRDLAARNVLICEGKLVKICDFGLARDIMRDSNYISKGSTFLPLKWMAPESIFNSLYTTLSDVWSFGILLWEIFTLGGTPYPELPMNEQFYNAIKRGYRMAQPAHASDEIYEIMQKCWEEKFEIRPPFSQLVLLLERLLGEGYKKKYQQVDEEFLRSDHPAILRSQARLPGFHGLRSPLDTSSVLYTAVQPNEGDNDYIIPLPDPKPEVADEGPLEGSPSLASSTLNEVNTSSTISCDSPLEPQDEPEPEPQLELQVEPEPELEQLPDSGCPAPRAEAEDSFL
# Vascular endothelial growth factor receptor 3, sequence (P35916 whole entry): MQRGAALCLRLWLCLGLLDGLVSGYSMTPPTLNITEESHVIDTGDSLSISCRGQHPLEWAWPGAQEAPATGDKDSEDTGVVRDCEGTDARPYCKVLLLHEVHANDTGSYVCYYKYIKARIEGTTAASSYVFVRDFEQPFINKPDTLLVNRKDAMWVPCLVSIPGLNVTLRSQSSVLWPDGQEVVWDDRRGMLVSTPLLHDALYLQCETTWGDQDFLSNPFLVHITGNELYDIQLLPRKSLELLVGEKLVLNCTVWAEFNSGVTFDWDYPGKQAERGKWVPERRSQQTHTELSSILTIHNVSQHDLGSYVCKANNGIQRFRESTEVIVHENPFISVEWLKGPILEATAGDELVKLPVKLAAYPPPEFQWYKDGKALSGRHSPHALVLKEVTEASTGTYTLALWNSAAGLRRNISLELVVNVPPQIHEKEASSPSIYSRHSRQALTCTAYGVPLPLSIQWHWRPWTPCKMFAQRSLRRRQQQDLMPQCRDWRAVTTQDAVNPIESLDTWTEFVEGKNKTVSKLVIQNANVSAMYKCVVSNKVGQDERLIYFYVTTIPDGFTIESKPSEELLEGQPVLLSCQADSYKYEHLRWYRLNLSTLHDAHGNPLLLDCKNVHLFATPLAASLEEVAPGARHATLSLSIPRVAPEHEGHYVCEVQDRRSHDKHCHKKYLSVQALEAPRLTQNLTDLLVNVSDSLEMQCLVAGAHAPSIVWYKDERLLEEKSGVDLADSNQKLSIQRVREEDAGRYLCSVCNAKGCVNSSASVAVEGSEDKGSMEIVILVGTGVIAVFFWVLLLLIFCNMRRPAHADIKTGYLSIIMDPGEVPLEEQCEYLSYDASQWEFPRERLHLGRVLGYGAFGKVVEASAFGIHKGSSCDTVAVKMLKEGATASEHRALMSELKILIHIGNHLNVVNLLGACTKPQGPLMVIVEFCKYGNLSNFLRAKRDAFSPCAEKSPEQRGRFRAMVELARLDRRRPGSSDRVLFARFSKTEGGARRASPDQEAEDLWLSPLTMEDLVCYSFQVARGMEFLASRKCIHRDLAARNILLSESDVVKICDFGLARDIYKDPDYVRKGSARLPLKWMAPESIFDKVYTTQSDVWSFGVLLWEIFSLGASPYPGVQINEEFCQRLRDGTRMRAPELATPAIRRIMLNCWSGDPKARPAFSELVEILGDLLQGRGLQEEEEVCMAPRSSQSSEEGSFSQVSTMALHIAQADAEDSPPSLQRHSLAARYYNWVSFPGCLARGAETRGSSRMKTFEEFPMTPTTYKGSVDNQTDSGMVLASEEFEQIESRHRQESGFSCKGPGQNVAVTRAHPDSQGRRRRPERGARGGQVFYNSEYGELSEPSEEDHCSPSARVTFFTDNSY
structure (smiles),measurement,setting,value
CN1CCC(c2c(O)cc(O)c3c(=O)cc(-c4ccccc4Cl)oc23)C(O)C1 (stereo not given),Ki,[1],316 nM (active)
same,Ki,[2],> 2000 nM (inactive)
same,Ki,[3],> 10000 nM (inactive)
same,Ki,[4],1260 nM (active)
same,Ki,[5],3160 nM (active)
same,Ki,[6],794 nM (active)
same,Ki,[7],> 1580 nM (inactive)
same,Ki,SRSF protein kinase 1,501 nM (active)
same,Ki,[8],> 7940 nM (inactive)
same,Ki,[9],> 6310 nM (inactive)
same,Ki,[10],> 2000 nM (inactive)
same,Ki,[11],> 1580 nM (inactive)
same,Ki,[12],1260 nM (active)
same,Ki,[13],> 2000 nM (inactive)
same,Ki,[14],> 6310 nM (inactive)
same,Ki,[15],5010 nM (active)
same,Ki,[16],> 6310 nM (inactive)
same,Ki,[17],> 7940 nM (inactive)
same,Ki,[18],1000 nM (active)
same,Ki,[19],> 10000 nM (inactive)
same,Ki,[20],> 2510 nM (inactive)
CC(/C=C1\SC(=S)N(NS(=O)(=O)c2ccc(C)cc2)C1=O)=C\c1ccccc1,IC50,Aminopeptidase N,64000 nM (active)
same,EC50,Streptokinase A,> 150000 nM (not active)
same,EC50,Streptococcus,8340 nM (active)
COc1ccc(C2=NNc3cccc4c(OC)ccc2c34)cc1OC,Ki,[21],> 2510 nM (inactive)

# Source: ChEMBL document CHEMBL1201862, “PubChem BioAssay data set” (2004)
